According to patent US11485731B2, “Compounds and methods useful in the treatment of a PRMT5-mediated disorder” (ARGONAUT THERAPEUTICS LIMITED, priority 2017, dated 2022):

What follows are molecules tested against human PRMT5/MEP50 (Homo sapiens (Human), UniProt O14744) (assay: PRMT5 chemiluminescent assay). Conditions: human PRMT5/MEP50 expressed in HEK293 cells; biotinylated histone peptides; Histone H4 monomethyl R3 antibody; chemiluminescent readout.
Assay type: biochemical
Outline: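 HEK293-expressed PRMT5/MEP50, diluted to 5 ng/µL in assay buffer, reacted 60 min with rotation on plate-bound biotinylated histone peptides. Product was detected with anti-histone H4 R3 monomethyl antibody (60 min), then HRP secondary (30 min) and chemiluminescent substrate. IC50 values came from the chemiluminescence signal.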

Chain of human PRMT5/MEP50 (O14744 whole entry): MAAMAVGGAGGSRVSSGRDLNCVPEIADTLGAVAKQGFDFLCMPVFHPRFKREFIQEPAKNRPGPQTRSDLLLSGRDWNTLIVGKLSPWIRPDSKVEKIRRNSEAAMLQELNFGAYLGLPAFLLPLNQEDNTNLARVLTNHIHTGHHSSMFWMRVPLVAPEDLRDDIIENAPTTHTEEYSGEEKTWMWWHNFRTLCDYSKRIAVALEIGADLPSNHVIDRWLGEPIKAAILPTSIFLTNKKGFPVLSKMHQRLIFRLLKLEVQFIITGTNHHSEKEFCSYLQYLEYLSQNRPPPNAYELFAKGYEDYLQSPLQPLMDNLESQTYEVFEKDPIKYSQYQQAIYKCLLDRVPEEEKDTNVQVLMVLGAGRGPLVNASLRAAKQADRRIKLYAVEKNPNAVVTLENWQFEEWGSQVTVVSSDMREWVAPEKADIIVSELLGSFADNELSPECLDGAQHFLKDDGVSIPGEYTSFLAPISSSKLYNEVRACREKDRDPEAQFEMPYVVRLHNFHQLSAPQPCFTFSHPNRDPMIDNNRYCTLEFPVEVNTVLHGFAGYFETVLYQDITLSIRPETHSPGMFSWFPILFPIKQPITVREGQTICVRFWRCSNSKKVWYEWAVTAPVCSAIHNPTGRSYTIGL
Chain of human PRMT5/MEP50 (Q9BQA1 whole entry partner): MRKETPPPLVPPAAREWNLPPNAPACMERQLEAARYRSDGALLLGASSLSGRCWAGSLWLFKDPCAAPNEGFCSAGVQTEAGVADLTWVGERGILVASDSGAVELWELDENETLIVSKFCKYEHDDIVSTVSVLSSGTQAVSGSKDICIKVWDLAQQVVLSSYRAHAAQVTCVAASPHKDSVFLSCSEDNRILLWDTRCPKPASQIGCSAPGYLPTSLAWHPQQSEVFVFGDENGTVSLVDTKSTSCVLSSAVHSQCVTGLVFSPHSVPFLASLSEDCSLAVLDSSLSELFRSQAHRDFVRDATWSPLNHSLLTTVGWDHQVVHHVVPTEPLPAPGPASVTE

SMILES | IC50
O=C(NCC(O)CN1CCc2ccccc2C1)N1CCCc2ccccc21 (centres unmarked) [Example 2A, N-(3-(3,4-dihydroisoquinolin-2(1H)-yl)-2-hydroxypropyl)-3,4-dihydroquinoline-1(2H)-carboxamide] | 87 nM
O=C(NCC(O)CN1CCc2ccccc2C1)N1CCc2ccccc21 (centres unmarked) [Example 2B, N-[2-hydroxy-3-(1,2,3,4-tetrahydroisoquinolin-2-yl)propyl]-2,3-dihydro-1H-indole-1-carboxamide] | 8500 nM
O=C(OCC(O)CN1CCc2ccccc2C1)N1CCc2ccccc2C1 (centres unmarked) [Example 3A, 3-(3,4-dihydroisoquinolin-2(1H)-yl)-2-hydroxypropyl 3,4-dihydroisoquinoline-2(1H)-carboxylate] | 192 nM
O=C(OCC(O)CN1CCc2ccccc2C1)N1CCCCC1 (centres unmarked) [Example 3B, 2-hydroxy-3-(1,2,3,4-tetrahydroisoquinolin-2-yl)propyl piperidine-1-carboxylate] | 613 nM
O=C(OCC(O)CN1CCc2ccccc2C1)N1CCCC1 (centres unmarked) [Example 3C, 2-hydroxy-3-(1,2,3,4-tetrahydroisoquinolin-2-yl)propyl pyrrolidine-1-carboxylate] | 9560 nM
O=C(OCC(O)CN1CCc2ccccc2C1)N1CCC(c2ccccc2)C1 (centres unmarked) [Example 3D, 2-hydroxy-3-(1,2,3,4-tetrahydroisoquinolin-2-yl)propyl 3-phenylpyrrolidine-1-carboxylate] | 15 nM
O=C(OCC(O)CN1CCc2ccccc2C1)N1CCSCC1 (centres unmarked) [Example 4A, 3-(3,4-dihydroisoquinolin-2(1H)-yl)-2-hydroxypropyl thiomorpholine-4-carboxylate] | 477 nM
O=C(OCC(O)CN1CCc2sccc2C1)N1CCc2ccccc2C1 (centres unmarked) [Example 4AA, 3-(6,7-dihydrothieno[3,2-c]pyridin-5(4H)-yl)-2-hydroxypropyl 3,4-dihydroisoquinoline-2(1H)-carboxylate] | 46 nM
O=C(OCC(O)CN1CCc2ccsc2C1)N1CCc2ccccc2C1 (centres unmarked) [Example 4AB, 3-(4,7-dihydrothieno[2,3-c]pyridin-6(5H)-yl)-2-hydroxypropyl 3,4-dihydroisoquinoline-2(1H)-carboxylate] | 1010 nM
O=C(OCC(O)CN1CCc2sccc2C1)N1CCCC(c2ccccc2)C1 (centres unmarked) [Example 4AC, 3-(6,7-dihydrothieno[3,2-c]pyridin-5(4H)-yl)-2-hydroxypropyl 3-phenylpiperidine-1-carboxylate] | 374 nM
O=C(OCC(O)CN1CCc2ccsc2C1)N1CCCC(c2ccccc2)C1 (centres unmarked) [Example 4AD, 3-(4,7-dihydrothieno[2,3-c]pyridin-6(5H)-yl)-2-hydroxypropyl 3-phenylpiperidine-1-carboxylate] | 223 nM
O=C(OCC(O)CN1CCc2sccc2C1)N1CCC(c2ccccc2)C1 (centres unmarked) [Example 4AE, 3-(6,7-dihydrothieno[3,2-c]pyridin-5(4H)-yl)-2-hydroxypropyl 3-phenylpyrrolidine-1-carboxylate] | 41 nM
O=C(OCC(O)CN1CCc2ccsc2C1)N1CCC(c2ccccc2)C1 (centres unmarked) [Example 4AF, 3-(4,7-dihydrothieno[2,3-c]pyridin-6(5H)-yl)-2-hydroxypropyl 3-phenylpyrrolidine-1-carboxylate] | 21 nM
O=C(OCC(O)CN1CCc2ccccc2C1)N1CCCc2ccccc21 (centres unmarked) [Example 4AG, 3-(3,4-dihydroisoquinolin-2(1H)-yl)-2-hydroxypropyl 3,4-dihydroquinoline-1(2H)-carboxylate] | 360 nM
O=C(OCC(O)CN1CCc2ccccc2C1)N1CCC(C(=O)N2CCOCC2)CC1 (centres unmarked) [Example 4B, 3-(3,4-dihydroisoquinolin-2(1H)-yl)-2-hydroxypropyl 4-(morpholine-4-carbonyl)piperidine-1-carboxylate] | 75 nM
O=C(OCC(O)CN1CCc2ccccc2C1)N1CCCC(Nc2ccncc2)C1 (centres unmarked) [Example 4C, 3-(3,4-dihydroisoquinolin-2(1H)-yl)-2-hydroxypropyl 3-(pyridin-4-ylamino)piperidine-1-carboxylate] | 25 nM
O=C(OCC(O)CN1CCc2ccccc2C1)N1CCC(Cc2ccccc2)CC1 (centres unmarked) [Example 4D, 3-(3,4-dihydroisoquinolin-2(1H)-yl)-2-hydroxypropyl 4-benzylpiperidine-1-carboxylate] | 173 nM
O=C(OC[C@H](O)CN1CCc2ccccc2C1)N1CCC(c2ccccc2)C1 (stereo partly drawn) [Example 4E, (R)-3-(3,4-dihydroisoquinolin-2(1H)-yl)-2-hydroxypropyl 3-phenylpyrrolidine-1-carboxylate] | 19 nM
O=C(OC[C@@H](O)CN1CCc2ccccc2C1)N1CCC(c2ccccc2)C1 (stereo partly drawn) [Example 4F, (S)-3-(3,4-dihydroisoquinolin-2(1H)-yl)-2-hydroxypropyl 3-phenylpyrrolidine-1-carboxylate] | 49 nM

SMILES | IC50
O=C(OC[C@H](O)CN1CCc2ccccc2C1)N1CCc2ccccc2C1 [Example 4G, (R)-3-(3,4-dihydroisoquinolin-2(1H)-yl)-2-hydroxypropyl 3,4-dihydroisoquinoline-2(1H)-carboxylate] | 8 nM
O=C(OC[C@@H](O)CN1CCc2ccccc2C1)N1CCc2ccccc2C1 [Example 4H, (S)-3-(3,4-dihydroisoquinolin-2(1H)-yl)-2-hydroxypropyl 3,4-dihydroisoquinoline-2(1H)-carboxylate] | 539 nM
O=C(OCC(O)CN1CCc2ccccc2C1)N1CCCC(O)C1 (centres unmarked) [Example 4I, 3-(3,4-dihydroisoquinolin-2(1H)-yl)-2-hydroxypropyl 3-hydroxypiperidine-1-carboxylate] | 8830 nM
CN1CCCN(C(=O)OCC(O)CN2CCc3ccccc3C2)CC1 (centres unmarked) [Example 4J, 3-(3,4-dihydroisoquinolin-2(1H)-yl)-2-hydroxypropyl 4-methyl-1,4-diazepane-1-carboxylate] | 246 nM
O=C(OC[C@H](O)CN1CCc2ccccc2C1)N1CC[C@@H](c2ccccc2)C1 [Example 4K, (R)-3-(3,4-dihydroisoquinolin-2(1H)-yl)-2-hydroxypropyl (S)-3-phenylpyrrolidine-1-carboxylate] | 20 nM
O=C(OC[C@H](O)CN1CCc2ccccc2C1)N1CC[C@H](c2ccccc2)C1 [Example 4L, (R)-3-(3,4-dihydroisoquinolin-2(1H)-yl)-2-hydroxypropyl (R)-3-phenylpyrrolidine-1-carboxylate] | 13 nM
O=C(OCC(O)CN1CCc2ccccc2C1)N1CC[S+]([O-])CC1 (centres unmarked) [Example 4M, 3-(3,4-dihydroisoquinolin-2(1H)-yl)-2-hydroxypropyl thiomorpholine-4-carboxylate 1-oxide] | 2220 nM
O=C(OCC(O)CN1CCc2ccccc2C1)N1CCS(=O)(=O)CC1 (centres unmarked) [Example 4N, 3-(3,4-dihydroisoquinolin-2(1H)-yl)-2-hydroxypropyl thiomorpholine-4-carboxylate 1,1-dioxide] | 213000 nM
CN(C)C(=O)C1CCN(C(=O)OC[C@H](O)CN2CCc3ccccc3C2)CC1 [Example 4O, (R)-3-(3,4-dihydroisoquinolin-2(1H)-yl)-2-hydroxypropyl 4-(dimethylcarbamoyl)piperidine-1-carboxylate] | 2710 nM
O=C(OC[C@H](O)CN1CCc2ccccc2C1)N1CCC(C(=O)N2CCOCC2)CC1 [Example 4P, (R)-3-(3,4-dihydroisoquinolin-2(1H)-yl)-2-hydroxypropyl 4-(morpholine-4-carbonyl)piperidine-1-carboxylate] | 225 nM
O=C(OC[C@H](O)CN1CCc2ccccc2C1)N1CCC(C(=O)N2C3CCC2COC3)CC1 [Example 4Q, (R)-3-(3,4-dihydroisoquinolin-2(1H)-yl)-2-hydroxypropyl 4-(3-oxa-8-azabicyclo[3.2.1]octane-8-carbonyl)piperidine-1-carboxylate] | 160 nM
O=C(OC[C@H](O)CN1CCc2ccccc2C1)N1CCC(c2ccccn2)C1 (stereo partly drawn) [Example 4R, (R)-3-(3,4-dihydroisoquinolin-2(1H)-yl)-2-hydroxypropyl 3-(pyridin-2-yl)pyrrolidine-1-carboxylate] | 81 nM
CN(C)C(=O)C1CN(C(=O)OCC(O)CN2CCc3ccccc3C2)C1 (centres unmarked) [Example 4S, 3-(3,4-dihydroisoquinolin-2(1H)-yl)-2-hydroxypropyl 3-(dimethylcarbamoyl)azetidine-1-carboxylate] | 5030 nM
O=C(OCC(O)CN1CCc2ccccc2C1)N1CC(C(=O)N2CCOCC2)C1 (centres unmarked) [Example 4T, 3-(3,4-dihydroisoquinolin-2(1H)-yl)-2-hydroxypropyl 3-(morpholine-4-carbonyl)azetidine-1-carboxylate] | 1860 nM
O=C(OCC(O)CN1CCc2ccccc2C1)N1CC(C(=O)N2C3CCC2COC3)C1 (centres unmarked) [Example 4U, 3-(3,4-dihydroisoquinolin-2(1H)-yl)-2-hydroxypropyl 3-(3-oxa-8-azabicyclo[3.2.1]octane-8-carbonyl)azetidine-1-carboxylate] | 2980 nM
CC(=O)N1CCCN(C(=O)OCC(O)CN2CCc3ccccc3C2)CC1 (centres unmarked) [Example 4V, 3-(3,4-dihydroisoquinolin-2(1H)-yl)-2-hydroxypropyl 4-acetyl-1,4-diazepane-1-carboxylate] | 38900 nM
COC(=O)N1CCCN(C(=O)OCC(O)CN2CCc3ccccc3C2)CC1 (centres unmarked) [Example 4W, 1-(3-(3,4-dihydroisoquinolin-2(1H)-yl)-2-hydroxypropyl) 4-methyl 1,4-diazepane-1,4-dicarboxylate] | 10800 nM
O=C(OC[C@@H](O)CN1CCc2ccccc2C1)N1CCC(C(=O)N2C3CCC2COC3)CC1 [Example 4X, (S)-3-(3,4-dihydroisoquinolin-2(1H)-yl)-2-hydroxypropyl 4-(3-oxa-8-azabicyclo[3.2.1]octane-8-carbonyl)piperidine-1-carboxylate] | 809 nM
O=C(OCC(O)CN1CCc2sccc2C1)N1CCCc2ccccc21 (centres unmarked) [Example 4Y, 3-(6,7-dihydrothieno[3,2-c]pyridin-5(4H)-yl)-2-hydroxypropyl 3,4-dihydroquinoline-1(2H)-carboxylate] | 1460 nM
